Experimental data published in patent US20050020671A1, “Pharmaceutical formulation” (priority 2001, published 2005).
Structures can show the parent of a compound that is named as a salt.

Test: chemical compatibility of ranitidine hydrochloride and acetylsalicylic acid in contact
Type: physicochemical
Details: the two actives in physical contact; degradation products form, reaction manifest in a matter of days
Source text: British Patent No 2,105,193 discloses pharmaceutical compositions comprising a systemic non-steroidal anti-inflammatory drug and ranitidine or a physiologically acceptable salt thereof. […] These two active ingredients react chemically with each other to produce degradation products. The reaction becomes manifest in a matter of days and implies a serious stability problem for pharmaceutical compositions containing both active ingredients.

CNC(=C[N+](=O)[O-])NCCSCc1ccc(CN(C)C)o1 [ranitidine hydrochloride, N-[2-[[[5-(dimethylamino)methyl]-2-furanyl]methyl]thio]ethyl-N′-methyl-2-nitro-1,1-ethanediamine]
chemical compatibility with acetylsalicylic acid: clear chemical incompatibility
